Measured values from ChEMBL document CHEMBL5131517 (ACS Med Chem Lett, 2022).

Columns and labels:
[1] = biological target: 5-hydroxytryptamine receptor 2A (Homo sapiens, UniProt P28223); experiment: Agonist activity at human 5HT2A receptor stably expressed in Flp-In-T-REx-293 cells assessed as increase in Gq-mediated calcium flux by Fluo-4 direct dye based FLIPR Tetra assay; assay type: functional, cell-based
[2] = biological target: 5-hydroxytryptamine receptor 6 (Homo sapiens, UniProt P50406); experiment: Binding affinity to 5HT6 receptor (unknown origin) assessed as inhibition constant
[3] = biological target: Mu-type opioid receptor (Homo sapiens) (UniProt P35372); experiment: Inhibition of MOR receptor (unknown origin); details: concentration not given here
[4] = biological target: T1, 5-hydroxytryptamine receptor 2B (Homo sapiens, UniProt P41595); experiment: Agonist activity at human 5HT2B receptor stably expressed in Flp-In-T-REx-293 cells assessed as maximal Gq-mediated calcium flux by Fluo-4 direct dye based FLIPR Tetra assay relative to control; assay type: functional, cell-based; details: filed as agonist
[5] = biological target: Sodium-dependent serotonin transporter (Homo sapiens, UniProt P31645); experiment: Inhibition of SERT receptor (unknown origin); details: concentration not given here
[6] = biological target: T2, Alpha-1B adrenergic receptor (Homo sapiens) (UniProt P35368); experiment: Inhibition of alpha1B receptor (unknown origin); details: concentration not given here
T2 sequence (whole entry): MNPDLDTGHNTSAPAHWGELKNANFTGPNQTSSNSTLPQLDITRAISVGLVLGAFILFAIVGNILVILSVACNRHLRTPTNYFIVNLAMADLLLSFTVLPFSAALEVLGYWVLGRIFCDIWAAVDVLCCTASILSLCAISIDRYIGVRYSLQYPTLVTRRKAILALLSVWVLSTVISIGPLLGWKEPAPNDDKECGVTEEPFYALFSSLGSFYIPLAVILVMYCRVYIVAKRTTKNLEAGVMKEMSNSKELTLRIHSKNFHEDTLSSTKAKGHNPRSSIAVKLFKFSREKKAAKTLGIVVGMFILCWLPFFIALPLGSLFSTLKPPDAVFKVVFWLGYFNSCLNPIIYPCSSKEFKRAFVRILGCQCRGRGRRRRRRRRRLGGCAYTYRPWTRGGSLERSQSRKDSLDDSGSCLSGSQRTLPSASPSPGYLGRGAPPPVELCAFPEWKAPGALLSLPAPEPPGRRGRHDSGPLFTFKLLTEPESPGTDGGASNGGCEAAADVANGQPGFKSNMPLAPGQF

[7] = biological target: 5-hydroxytryptamine receptor 1D (Homo sapiens, UniProt P28221); experiment: Binding affinity to 5HT1D receptor (unknown origin) assessed as inhibition constant
[8] = biological target: Histamine H3 receptor (Homo sapiens) (UniProt Q9Y5N1); experiment: Inhibition of H3 receptor (unknown origin); details: concentration not given here
[9] = biological target: T3, Alpha-1A adrenergic receptor (Homo sapiens) (UniProt P35348); experiment: Inhibition of alpha1A receptor (unknown origin); details: concentration not given here
T3 sequence (whole entry): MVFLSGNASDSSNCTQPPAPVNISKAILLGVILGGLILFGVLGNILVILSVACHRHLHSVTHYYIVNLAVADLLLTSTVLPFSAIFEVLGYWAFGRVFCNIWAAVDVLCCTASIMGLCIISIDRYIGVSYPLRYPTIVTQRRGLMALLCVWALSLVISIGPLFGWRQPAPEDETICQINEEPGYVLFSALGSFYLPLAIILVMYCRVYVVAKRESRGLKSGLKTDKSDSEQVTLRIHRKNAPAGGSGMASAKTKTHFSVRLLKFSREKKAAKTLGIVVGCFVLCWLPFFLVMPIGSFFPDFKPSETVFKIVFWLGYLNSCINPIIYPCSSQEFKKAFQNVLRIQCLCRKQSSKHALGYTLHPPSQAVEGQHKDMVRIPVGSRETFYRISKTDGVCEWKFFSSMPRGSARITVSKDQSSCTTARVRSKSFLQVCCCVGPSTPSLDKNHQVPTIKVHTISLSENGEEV

[10] = biological target: T1, 5-hydroxytryptamine receptor 2B; experiment: Binding affinity to 5HT2B receptor (unknown origin) assessed as inhibition constant
[11] = biological target: Sodium-dependent dopamine transporter (Homo sapiens) (UniProt Q01959); experiment: Inhibition of DAT receptor (unknown origin); details: concentration not given here
[12] = biological target: T4, Muscarinic acetylcholine receptor M4 (Homo sapiens) (UniProt P08173); experiment: Inhibition of M4 receptor (unknown origin); details: concentration not given here
T4 sequence (whole entry): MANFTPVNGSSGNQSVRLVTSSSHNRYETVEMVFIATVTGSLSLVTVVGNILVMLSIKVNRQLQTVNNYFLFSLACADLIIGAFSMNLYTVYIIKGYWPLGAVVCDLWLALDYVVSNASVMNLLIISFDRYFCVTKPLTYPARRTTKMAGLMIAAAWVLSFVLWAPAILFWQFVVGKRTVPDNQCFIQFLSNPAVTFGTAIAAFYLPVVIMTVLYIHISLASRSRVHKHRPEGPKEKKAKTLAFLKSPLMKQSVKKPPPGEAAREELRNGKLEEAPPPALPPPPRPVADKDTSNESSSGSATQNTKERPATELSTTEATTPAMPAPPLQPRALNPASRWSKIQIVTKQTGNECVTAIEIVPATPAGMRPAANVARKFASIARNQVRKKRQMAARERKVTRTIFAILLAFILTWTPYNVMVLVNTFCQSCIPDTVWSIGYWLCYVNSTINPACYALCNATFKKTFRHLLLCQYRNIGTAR

[13] = biological target: T5, Muscarinic acetylcholine receptor M2 (Homo sapiens) (UniProt P08172); experiment: Inhibition of M2 receptor (unknown origin); details: concentration not given here
T5 sequence (whole entry): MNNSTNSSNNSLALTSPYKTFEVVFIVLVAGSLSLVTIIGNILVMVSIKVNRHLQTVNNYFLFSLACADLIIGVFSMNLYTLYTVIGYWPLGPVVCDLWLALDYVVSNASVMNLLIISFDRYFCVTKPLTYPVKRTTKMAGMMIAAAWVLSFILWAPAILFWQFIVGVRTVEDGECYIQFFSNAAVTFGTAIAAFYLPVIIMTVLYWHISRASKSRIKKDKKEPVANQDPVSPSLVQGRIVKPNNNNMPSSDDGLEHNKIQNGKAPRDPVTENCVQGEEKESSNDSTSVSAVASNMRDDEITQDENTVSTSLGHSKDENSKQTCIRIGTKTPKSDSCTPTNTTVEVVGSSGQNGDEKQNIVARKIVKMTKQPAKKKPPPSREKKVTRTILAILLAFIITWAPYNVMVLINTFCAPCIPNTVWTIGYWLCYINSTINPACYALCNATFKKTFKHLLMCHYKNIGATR

[14] = biological target: 5-hydroxytryptamine receptor 1E (Homo sapiens, UniProt P28566); experiment: Binding affinity to 5HT1E receptor (unknown origin) assessed as inhibition constant
Chain of 5-hydroxytryptamine receptor 1E (P28566 whole entry): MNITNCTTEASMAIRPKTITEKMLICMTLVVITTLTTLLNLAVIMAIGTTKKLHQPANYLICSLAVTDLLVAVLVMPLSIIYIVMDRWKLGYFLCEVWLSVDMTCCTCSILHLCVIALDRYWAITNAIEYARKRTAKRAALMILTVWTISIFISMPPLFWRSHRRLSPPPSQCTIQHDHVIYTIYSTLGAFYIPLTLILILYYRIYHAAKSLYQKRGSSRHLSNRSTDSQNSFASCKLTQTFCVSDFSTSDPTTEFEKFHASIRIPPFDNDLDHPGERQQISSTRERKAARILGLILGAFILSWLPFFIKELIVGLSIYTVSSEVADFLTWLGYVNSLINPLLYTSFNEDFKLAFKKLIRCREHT

Chain of Mu-type opioid receptor (Homo sapiens) (P35372 whole entry): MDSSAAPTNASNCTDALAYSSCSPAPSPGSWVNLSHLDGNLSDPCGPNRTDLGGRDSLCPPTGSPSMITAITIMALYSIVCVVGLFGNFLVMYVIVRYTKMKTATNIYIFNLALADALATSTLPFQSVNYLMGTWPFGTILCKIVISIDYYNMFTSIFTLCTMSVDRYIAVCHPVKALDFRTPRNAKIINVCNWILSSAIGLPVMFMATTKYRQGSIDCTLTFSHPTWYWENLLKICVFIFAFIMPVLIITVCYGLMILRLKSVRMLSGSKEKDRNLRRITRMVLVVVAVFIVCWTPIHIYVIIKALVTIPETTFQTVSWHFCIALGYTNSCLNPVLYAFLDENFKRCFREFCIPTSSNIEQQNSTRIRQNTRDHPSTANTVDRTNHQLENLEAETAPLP
Chain of Histamine H3 receptor (Homo sapiens) (Q9Y5N1 whole entry): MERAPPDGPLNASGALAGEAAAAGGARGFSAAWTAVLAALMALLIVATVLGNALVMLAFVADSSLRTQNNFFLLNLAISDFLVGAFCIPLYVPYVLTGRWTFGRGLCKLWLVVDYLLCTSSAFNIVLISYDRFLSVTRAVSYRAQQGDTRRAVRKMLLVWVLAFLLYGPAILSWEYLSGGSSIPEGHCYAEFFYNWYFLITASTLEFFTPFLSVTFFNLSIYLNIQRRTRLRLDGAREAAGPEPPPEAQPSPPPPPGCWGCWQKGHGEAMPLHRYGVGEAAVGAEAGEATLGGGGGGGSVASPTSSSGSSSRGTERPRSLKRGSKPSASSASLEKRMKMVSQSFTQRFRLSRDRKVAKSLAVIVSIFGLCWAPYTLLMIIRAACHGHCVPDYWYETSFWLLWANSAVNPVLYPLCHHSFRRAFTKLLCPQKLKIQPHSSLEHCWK
Chain of 5-hydroxytryptamine receptor 6 (P50406 whole entry): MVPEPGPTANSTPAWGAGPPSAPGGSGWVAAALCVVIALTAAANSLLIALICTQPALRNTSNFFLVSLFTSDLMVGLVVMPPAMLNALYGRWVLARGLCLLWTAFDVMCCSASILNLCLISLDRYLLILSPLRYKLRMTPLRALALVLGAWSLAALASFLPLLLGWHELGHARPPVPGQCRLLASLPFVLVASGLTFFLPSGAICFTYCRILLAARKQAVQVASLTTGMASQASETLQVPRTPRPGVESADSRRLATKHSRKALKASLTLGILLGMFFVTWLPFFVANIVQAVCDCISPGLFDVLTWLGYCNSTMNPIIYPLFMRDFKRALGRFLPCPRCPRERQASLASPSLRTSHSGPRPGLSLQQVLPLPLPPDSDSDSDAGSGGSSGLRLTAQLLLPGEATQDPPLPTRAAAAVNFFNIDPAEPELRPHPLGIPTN
T1 sequence (P41595 whole entry): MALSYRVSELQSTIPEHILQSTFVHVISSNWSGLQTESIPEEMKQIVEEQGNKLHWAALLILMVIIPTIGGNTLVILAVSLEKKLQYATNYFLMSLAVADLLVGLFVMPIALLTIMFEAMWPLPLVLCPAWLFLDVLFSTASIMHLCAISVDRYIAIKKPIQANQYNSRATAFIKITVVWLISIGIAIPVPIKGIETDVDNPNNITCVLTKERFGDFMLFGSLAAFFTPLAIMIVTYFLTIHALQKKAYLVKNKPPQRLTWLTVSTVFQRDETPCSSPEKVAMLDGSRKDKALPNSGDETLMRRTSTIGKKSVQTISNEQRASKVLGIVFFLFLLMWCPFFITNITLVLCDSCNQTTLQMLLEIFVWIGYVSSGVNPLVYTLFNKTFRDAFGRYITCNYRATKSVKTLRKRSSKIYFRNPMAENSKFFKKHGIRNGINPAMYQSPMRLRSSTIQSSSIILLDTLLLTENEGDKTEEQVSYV
Chain of 5-hydroxytryptamine receptor 2A (P28223 whole entry): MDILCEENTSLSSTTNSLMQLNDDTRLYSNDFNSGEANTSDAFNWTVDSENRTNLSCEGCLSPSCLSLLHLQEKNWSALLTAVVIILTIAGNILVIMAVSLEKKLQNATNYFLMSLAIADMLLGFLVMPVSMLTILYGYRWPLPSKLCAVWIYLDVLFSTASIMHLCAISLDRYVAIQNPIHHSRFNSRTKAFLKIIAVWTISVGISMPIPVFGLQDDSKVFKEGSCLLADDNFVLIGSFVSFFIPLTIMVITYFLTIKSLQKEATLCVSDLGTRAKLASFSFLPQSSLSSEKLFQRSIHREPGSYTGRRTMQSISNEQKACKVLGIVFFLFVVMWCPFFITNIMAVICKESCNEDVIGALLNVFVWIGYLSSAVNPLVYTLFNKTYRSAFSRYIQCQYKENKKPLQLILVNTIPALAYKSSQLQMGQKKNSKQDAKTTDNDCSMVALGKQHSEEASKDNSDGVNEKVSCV
Chain of Sodium-dependent dopamine transporter (Homo sapiens) (Q01959 whole entry): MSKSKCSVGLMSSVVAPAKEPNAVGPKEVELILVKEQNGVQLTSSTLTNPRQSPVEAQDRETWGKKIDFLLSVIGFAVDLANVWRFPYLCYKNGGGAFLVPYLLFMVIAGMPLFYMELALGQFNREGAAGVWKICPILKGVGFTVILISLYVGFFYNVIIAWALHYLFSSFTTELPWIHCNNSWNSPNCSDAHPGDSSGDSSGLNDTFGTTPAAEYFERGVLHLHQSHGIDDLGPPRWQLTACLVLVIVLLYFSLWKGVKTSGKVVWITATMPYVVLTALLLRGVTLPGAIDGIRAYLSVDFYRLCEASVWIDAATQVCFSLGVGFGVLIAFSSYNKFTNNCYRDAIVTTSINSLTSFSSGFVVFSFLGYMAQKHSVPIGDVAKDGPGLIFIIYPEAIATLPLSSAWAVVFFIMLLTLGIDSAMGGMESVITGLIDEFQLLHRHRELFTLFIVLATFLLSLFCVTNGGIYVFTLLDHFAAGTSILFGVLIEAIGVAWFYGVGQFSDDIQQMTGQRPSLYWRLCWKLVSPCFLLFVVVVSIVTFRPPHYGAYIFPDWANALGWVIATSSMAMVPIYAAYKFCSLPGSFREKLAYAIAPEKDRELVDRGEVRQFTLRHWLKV
Chain of Sodium-dependent serotonin transporter (P31645 whole entry, looked up): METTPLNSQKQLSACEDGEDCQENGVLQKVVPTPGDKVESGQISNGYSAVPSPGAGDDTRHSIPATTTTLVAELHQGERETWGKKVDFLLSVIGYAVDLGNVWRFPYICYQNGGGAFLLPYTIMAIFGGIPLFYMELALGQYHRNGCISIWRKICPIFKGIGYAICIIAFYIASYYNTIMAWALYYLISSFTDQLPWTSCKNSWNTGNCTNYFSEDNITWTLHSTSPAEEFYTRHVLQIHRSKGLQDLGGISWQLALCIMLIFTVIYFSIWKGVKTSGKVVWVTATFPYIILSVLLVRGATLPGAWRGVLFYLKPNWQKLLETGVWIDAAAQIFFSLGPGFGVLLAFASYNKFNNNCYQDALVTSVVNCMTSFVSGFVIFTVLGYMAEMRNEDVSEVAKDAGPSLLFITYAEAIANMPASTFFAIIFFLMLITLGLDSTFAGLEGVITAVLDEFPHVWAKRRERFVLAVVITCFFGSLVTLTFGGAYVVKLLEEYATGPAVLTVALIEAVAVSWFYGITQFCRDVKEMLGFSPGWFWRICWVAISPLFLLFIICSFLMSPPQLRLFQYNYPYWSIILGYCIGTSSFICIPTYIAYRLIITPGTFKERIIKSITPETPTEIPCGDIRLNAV
Chain of 5-hydroxytryptamine receptor 1D (P28221 whole entry): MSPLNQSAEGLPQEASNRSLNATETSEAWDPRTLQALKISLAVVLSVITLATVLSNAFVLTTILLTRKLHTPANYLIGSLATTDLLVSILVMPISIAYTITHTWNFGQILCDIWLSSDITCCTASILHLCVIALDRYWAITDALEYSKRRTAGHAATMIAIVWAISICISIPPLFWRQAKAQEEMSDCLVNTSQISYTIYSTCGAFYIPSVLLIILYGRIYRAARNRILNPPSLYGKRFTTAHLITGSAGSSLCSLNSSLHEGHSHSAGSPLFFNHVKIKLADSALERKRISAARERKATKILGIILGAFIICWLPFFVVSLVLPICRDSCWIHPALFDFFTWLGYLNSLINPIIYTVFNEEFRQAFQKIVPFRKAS

Row | Structure (SMILES) | EC50 [1] [nM] | Ki [2] [nM] | inhibition [3] [%] | Emax [4] [%] | inhibition [5] [%] | inhibition [6] [%] | Ki [7] [nM] | inhibition [8] [%] | inhibition [9] [%] | Ki [10] [nM] | inhibition [11] [%] | inhibition [12] [%] | inhibition [13] [%] | Ki [14] [nM]
1 | COc1cc(OC)c(C2NCCc3c2[nH]c2ccc(F)cc32)cc1OC (centres undefined) | 39 | 530 | < 50 | 106 | < 50 | < 50 | 660 | < 50 | < 50 | 55.7 | < 50 | < 50 | < 50 | –
2 | COc1ccc(C2NCCc3c2[nH]c2ccc(F)cc32)c(O)c1 (centres undefined) | 3.2 | 68.8 | < 50 | 102 | – | < 50 | 110 | < 50 | < 50 | 4.42 | < 50 | < 50 | < 50 | 1410
3 | COc1cc(OC)c(C2NCCc3c2[nH]c2ccc(Cl)cc32)cc1OC (centres undefined) | 1.7 | 29 | < 50 | 96.7 | < 50 | < 50 | 38.8 | < 50 | < 50 | 2.93 | < 50 | < 50 | < 50 | 666
4 | COc1ccc(C2NCCc3c2[nH]c2ccc(Cl)cc32)c(O)c1 (centres undefined) | 8.3 | 47.7 | < 50 | 99.4 | < 50 | < 50 | 31.5 | < 50 | < 50 | 4.53 | < 50 | < 50 | < 50 | 1750
